What was measured:
[1] = target: T1, StCsm complex (Palm domain of StCas10 subunit) (Streptococcus thermophilus, UniProt A0A0A7HFE1); experiment: Nucleotide binding assay (EMSA); conditions: for affinity towards nucleotide: EMSA, binary and ternary StCsm
T1 construct: made in house; host or cells: Escherichia coli BL21 (DE3)
Experimental: Nucleotide binding assay. Nucleotide binding assays were performed by incubating different amounts of StCsm complexes with 10 nM of ^32P-radiolabeled-nucleoside triphosphates in the Binding buffer (40 mM Tris, 20 mM acetic acid (pH 8.4 at 25° C.), 1 mM EDTA, 0.1 mg/ml BSA, 10% (v/v) glycerol). All reactions were incubated for 15 min at room temperature prior to electrophoresis on native 8% (w/v) polyacrylamide gel (PAAG). Electrophoresis was carried out at room temperature for 2 h at 6 V/cm using 40 mM Tris, 20 mM acetic acid (pH 8.4 at 25° C.), 0.1 mM EDTA as the running buffer. Gels were dried and visualized by a FLA-5100 phosphorimager (Fujifilm).
NTP binding by binary and ternary StCsm complexes was monitored using EMSA. The binding reactions contained 2 nM of α^32P-radiolabeled and 8 nM of the corresponding non-labeled nucleotide (ATP, 2′dATP, 3′dATP, GTP, UTP or CTP (Perkin Elmer)) in addition to the StCsm complex (without RNA, with the target RNA S3/2 or non-specific RNA NS, as denoted above the gels), at concentrations indicated by each lane. Samples were analyzed in PAAG under non-denaturing conditions.

ternary StCsm complex = target: T2, ternary StCsm complex (Streptococcus thermophilus, UniProt A0A0A7HFE1); experiment: StCsm mediated conversion of nucleoside triphosphates to reaction products (TLC); type: biochemical; conditions: 200 nM ternary StCsm, 50 μM nucleotide, 10 mM CoCl2, 37° C.
T2 construct: made in house; host or cells: Escherichia coli BL21 (DE3)
T2 sequence (A0A0A7HFE1 whole entry): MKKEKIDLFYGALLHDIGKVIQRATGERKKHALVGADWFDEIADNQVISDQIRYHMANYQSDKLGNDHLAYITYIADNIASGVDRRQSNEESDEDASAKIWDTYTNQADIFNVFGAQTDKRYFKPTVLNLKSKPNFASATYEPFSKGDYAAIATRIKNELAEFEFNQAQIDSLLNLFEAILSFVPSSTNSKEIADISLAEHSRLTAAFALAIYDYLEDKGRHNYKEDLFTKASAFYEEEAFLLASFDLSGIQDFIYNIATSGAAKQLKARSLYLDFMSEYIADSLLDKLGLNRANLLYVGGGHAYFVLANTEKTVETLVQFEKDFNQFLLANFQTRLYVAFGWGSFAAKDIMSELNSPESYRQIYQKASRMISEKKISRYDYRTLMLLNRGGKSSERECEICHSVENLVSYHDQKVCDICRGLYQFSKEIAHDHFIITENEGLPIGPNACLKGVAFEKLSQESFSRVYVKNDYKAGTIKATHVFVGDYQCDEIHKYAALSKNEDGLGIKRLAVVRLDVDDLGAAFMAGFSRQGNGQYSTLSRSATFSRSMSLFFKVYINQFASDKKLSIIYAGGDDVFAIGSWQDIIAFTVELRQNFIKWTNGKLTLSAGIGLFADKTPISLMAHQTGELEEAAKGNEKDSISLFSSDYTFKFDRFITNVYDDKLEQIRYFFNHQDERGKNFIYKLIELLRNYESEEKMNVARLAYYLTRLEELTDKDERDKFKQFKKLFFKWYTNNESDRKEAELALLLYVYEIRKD
T2 sequence (A0A0A7HGA1 whole entry, further chain): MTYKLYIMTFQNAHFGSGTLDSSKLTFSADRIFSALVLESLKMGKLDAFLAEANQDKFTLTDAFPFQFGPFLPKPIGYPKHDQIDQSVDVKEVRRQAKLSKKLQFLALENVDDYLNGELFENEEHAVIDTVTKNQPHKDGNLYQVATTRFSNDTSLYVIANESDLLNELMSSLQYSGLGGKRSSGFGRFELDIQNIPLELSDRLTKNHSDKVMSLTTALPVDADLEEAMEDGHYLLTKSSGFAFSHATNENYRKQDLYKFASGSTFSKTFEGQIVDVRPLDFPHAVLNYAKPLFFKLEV
T2 sequence (A0A0A7HIF0 whole entry, further chain): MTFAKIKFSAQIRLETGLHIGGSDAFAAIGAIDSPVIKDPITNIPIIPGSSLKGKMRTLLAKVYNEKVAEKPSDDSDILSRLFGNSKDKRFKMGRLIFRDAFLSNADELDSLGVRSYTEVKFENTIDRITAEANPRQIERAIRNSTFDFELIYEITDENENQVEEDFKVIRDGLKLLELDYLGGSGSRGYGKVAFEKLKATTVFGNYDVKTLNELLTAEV
T2 sequence (A0A0A7HIX1 whole entry, further chain): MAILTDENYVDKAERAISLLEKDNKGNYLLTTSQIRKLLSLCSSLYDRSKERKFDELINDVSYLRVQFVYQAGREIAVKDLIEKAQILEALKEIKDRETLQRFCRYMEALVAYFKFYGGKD
T2 sequence (A0A0A7HF79 whole entry, further chain): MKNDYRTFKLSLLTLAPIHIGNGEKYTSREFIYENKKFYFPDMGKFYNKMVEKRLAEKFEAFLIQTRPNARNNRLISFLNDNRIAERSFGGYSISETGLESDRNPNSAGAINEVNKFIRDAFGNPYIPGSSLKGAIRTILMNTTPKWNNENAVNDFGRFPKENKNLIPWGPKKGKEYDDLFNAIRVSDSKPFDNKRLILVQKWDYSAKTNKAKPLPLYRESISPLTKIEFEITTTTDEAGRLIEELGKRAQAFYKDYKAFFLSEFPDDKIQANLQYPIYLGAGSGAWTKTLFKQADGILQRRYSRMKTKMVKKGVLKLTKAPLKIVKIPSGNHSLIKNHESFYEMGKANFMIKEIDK
Experimental: StCsm mediated synthesis of cyclic oligoadenylates from ATP. The synthesis reactions of cyclic oligoadenylates by StCsm were initiated by adding 10 mM CoCl2 into a mix of 200 nM StCsm, 200 nM target RNA, 50 μM ATP and 10 nM α^32P-ATP in the Reaction buffer (33 mM Tris-acetate (pH 7.6 at 37° C.), 66 mM K-acetate, 0.1 mg/ml BSA) and carried out at 37° C. for 1 h or 1.5 h, unless stated otherwise. StCsm reactions on different nucleoside triphosphates contained 200 nM of ternary StCsm, 50 μM of the non-labeled nucleotide and 10 nM of the corresponding α^32P-nucleotide. The reactions were stopped by adding 15 mM EDTA. Reaction products were separated by TLC on PEI Cellulose F plates (Merck) in 0.5 M phosphate buffer (pH 3.5 at 23° C.) or a denaturating 24% (19:1 acrylamide:bis-acrylamide) PAAG and visualized using autoradiography.
(FIG. 1A) ATP reaction of an individual StCas10 subunit. The reactions contained 200 nM StCas10, 50 μM ATP, 10 nM α^32P-ATP (Perkin Elmer), 200 nM target RNA S3/2 and/or 5 nM M13 mp18 ssDNA. The assays were performed at 37° C. in the Reaction buffer supplemented with 10 mM CoCl2. Samples were analyzed by thin-layer chromatography (TLC), followed by phosphorimaging. Reaction products of the binary StCsm complex (Cas/Csm proteins plus crRNA) and ATP in the absence or in the presence of single-stranded (ss) DNA are presented in (FIG. 1B) and (FIG. 1C), respectively. Reaction products of the ternary StCsm complex (Cas/Csm proteins plus crRNA and target RNA) and ATP in the absence or in the presence of ssDNA are presented in (FIG. 1D) and (FIG. 1E), respectively. The reactions contained 200 nM of the binary or ternary StCsm, 50 μM ATP, 10 nM α^32P-ATP and 10 nM M13 mp18 ssDNA. The assays were performed at 37° C. in the Reaction buffer supplemented with 10 mM CoCl2 and the samples were analyzed by TLC, followed by phosphorimaging. Heating α^32P-ATP at 95° C. for 60 min was used to generate radiolabeled ADP and AMP, which were used as a TLC control (marked as lane M). Rate constants of ATP decay, which are presented bellow each TLC plate, were calculated by fitting single exponentials to the substrate depletion data. Cartoons above the graphs depict reaction components: protospacer is grey in between black lines, the complementary strand (matching spacer in crRNA) is lighter grey, DNA is a black circle.
(FIG. 3A) Cartoons above gels depict ternary StCsm complexes that differ in the bound target RNA molecules in the same manner as in FIG. 1. The agarose gels show degradation patterns of 1 nM of circular M13 mp18 ssDNA in the presence of 5 nM ternary StCsm complexes containing different RNAs FIG. 3A is reproduced from (1). All RNA substrates used here are bound and cleaved by the StCsm ribonuclease (2). (FIG. 3B) Reaction products of various ternary StCsm complexes with ATP. The reactions contained 200 nM of the ternary StCsm with different nucleic acids (NA), 50 μM ATP and 10 nM α^32P-ATP. The assays were performed at 37° C. in the Reaction buffer supplemented with 10 mM CoCl2 and the samples were analyzed by TLC, followed by phosphorimaging. Heating α^32P-ATP at 95° C. for 60 min was used to generate radiolabeled ADP and AMP, which were used as a TLC control (marked as lane M).
(A) Ternary StCsm complex was incubated with ATP, 2′dATP, 3′dATP, GTP, CTP or UTP radiolabeled nucleotides. The reactions contained 200 nM of the ternary StCsm, 50 μM of the non-labeled nucleotide and 10 nM of the corresponding α^32P-nucleotide. The assays were performed at 37° C. for 60 min in the Reaction buffer supplemented with 10 mM CoCl2 and samples were analyzed by TLC, followed by phosphorimaging. (B) The products of StCsm-mediated 2′dATP reaction were further analyzed by ion pair reverse-phase (RP) HPLC-MS. On the left panel, HPLC analysis is presented. On the right panels, the isotopic patterns of ions (without one, (M-H)-, or two (M-2H)2-protons) of the identified compounds are presented.

StCsm6 = target: T3, StCsm6 (Streptococcus thermophilus, UniProt A0A0A7HIX6); experiment: Csm6 nuclease assay, StCsm6; type: biochemical
T3 construct: HSH (StrepII tag plus two 6xHis tags) (N); made in house; host or cells: E. coli DH10B (ara)
T3 sequence (A0A0A7HIX6 1-428): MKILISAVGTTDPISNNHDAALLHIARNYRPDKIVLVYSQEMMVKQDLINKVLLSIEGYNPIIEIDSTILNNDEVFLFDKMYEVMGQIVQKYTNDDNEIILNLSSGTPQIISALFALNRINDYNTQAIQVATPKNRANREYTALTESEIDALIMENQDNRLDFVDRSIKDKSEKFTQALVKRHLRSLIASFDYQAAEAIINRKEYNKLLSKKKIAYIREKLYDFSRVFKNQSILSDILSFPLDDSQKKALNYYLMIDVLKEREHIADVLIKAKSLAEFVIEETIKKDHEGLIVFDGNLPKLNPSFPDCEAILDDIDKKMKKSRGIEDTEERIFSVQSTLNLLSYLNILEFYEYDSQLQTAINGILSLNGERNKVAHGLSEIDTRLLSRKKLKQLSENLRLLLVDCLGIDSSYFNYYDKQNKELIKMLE
Experimental: Csm6 nuclease assay. […] 5′P-oligoadenylates were obtained by incubating 3.(3) μM of non-phosphorylated linear oligoadenylate with 0.5 U T4 polynucleotide kinase and 1 mM ATP in the Reaction buffer A at 37° C. for 40 min.
Reactions were started by adding 0-10 μM Csm6 and carried out at 37° C. The reaction products were separated on a denaturing 15% (29:1 acrylamide:bis-acrylamide) PAAG and visualized by autoradiography. StCsm6 nuclease assays with ATP additionally contained 1 mM of ATP in the reaction mixture.

StCsm6′ = target: T4, StCsm6′ (Streptococcus thermophilus, UniProt A0A0A7HFE6); experiment: Csm6 nuclease assay, StCsm6′; type: biochemical; conditions: ssRNA NS, 37° C. 30 min, 50 nM individual cyclic oligoadenylate
T4 construct: HSH (StrepII tag plus two 6xHis tags) (N); made in house; host or cells: E. coli DH10B (ara)
T4 sequence (A0A0A7HFE6 whole entry): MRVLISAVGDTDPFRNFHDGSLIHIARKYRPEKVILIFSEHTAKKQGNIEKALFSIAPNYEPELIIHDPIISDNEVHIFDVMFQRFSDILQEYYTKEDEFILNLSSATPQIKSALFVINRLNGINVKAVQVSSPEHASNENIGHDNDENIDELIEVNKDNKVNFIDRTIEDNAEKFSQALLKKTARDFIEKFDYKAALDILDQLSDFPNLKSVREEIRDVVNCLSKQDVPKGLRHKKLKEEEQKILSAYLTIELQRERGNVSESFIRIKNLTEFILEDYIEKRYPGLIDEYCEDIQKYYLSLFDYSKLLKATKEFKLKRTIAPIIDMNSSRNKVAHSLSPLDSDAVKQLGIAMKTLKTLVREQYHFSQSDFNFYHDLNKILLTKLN
Experimental: Csm6 nuclease assay. StCsm6, StCsm6′, and TtCsm6 nuclease assays were conducted in the Reaction buffer (33 mM Tris-acetate (pH 7.6 at 37° C.), 66 mM K-acetate, 0.1 mg/ml BSA) supplemented with 1 mM EDTA and containing 5 nM of 5′-radiolabeled and 5 nM of unlabeled RNA NS (unless stated otherwise; see all RNA substrates used in this study in Table 1) and 500 nM of cyclic oligoadenylate mixture or 0.5-500 nM of the HPLC purified cyclic oligoadenylate effectors or 5-500 nM linear oligoadenylate with various phosphorylation levels—linear oligoadenylate 5′-triphosphate (ChemGenes); non-phosphorylated, 3′P (Metabion) or 5′P containing linear oligoadenylates. 5′P-oligoadenylates were obtained by incubating 3.(3) μM of non-phosphorylated linear oligoadenylate with 0.5 U T4 polynucleotide kinase and 1 mM ATP in the Reaction buffer A at 37° C. for 40 min. […]
(FIG. 20A) Domain arrangement of StCsm6′. […] The elution profile of the StCsm6′ is presented with the calculated experimental molecular weight 108.1 kDa, corresponding to protein dimer. […]
Analysis of StCsm6 (FIG. 23A) and StCsm6′ (FIG. 23B) cleavage of ssRNA NS in the absence or presence of synthetic c(AMP)2 (c-di-AMP) (Sigma-Aldrich) or HPLC isolated c(AMP)3, c(AMP)4, c(AMP)5 (synthesized by StCsm from ATP) or c(AMP)6 (synthesized by StCsm from pp(pA)6 precursor). […] Samples were analyzed in denaturing PAAG, followed by phosphorimaging. […]

T1 sequence (A0A0A7HFE1 whole entry, the tested form may be a part): as the sequence (A0A0A7HFE1 whole entry) above
T1 sequence (A0A0A7HF79 whole entry, further chain, the tested form may be a part): as the sequence (A0A0A7HF79 whole entry, further chain) above
T1 sequence (A0A0A7HIF0 whole entry, further chain, the tested form may be a part): as the sequence (A0A0A7HIF0 whole entry, further chain) above
T1 sequence (A0A0A7HGA1 whole entry, further chain, the tested form may be a part): as the sequence (A0A0A7HGA1 whole entry, further chain) above
T1 sequence (A0A0A7HIX1 whole entry, further chain, the tested form may be a part): as the sequence (A0A0A7HIX1 whole entry, further chain) above

| SMILES | reaction products formed from the nucleotide alone (ternary StCsm complex) | affinity towards nucleotide [1] | further results |
| --- | --- | --- | --- |
| Nc1ncnc2c1ncn2[C@H]1C[C@H](O)[C@@H](COP(=O)(O)OP(=O)(O)OP(=O)(O)O)O1 [2′dATP] | reacts with significantly lower efficiency | – | binding affinity, ternary StCsm complex ([1]; target RNA bound (ternary StCsm complex)): visibly decreases |
| Nc1ncnc2c1ncn2[C@@H]1O[C@H](COP(=O)(O)OP(=O)(O)OP(=O)(O)O)C[C@H]1O [3′dATP] | does not produce any reaction products | – | – |
| Nc1ncnc2c1ncn2[C@@H]1O[C@H](COP(=O)(O)O)[C@@H](O)[C@H]1O [AMP, adenosine monophosphate] | yields no products | – | – |
| Nc1ncnc2c1ncn2[C@@H]1O[C@H](COP(=O)(O)OP(=O)(O)OP(=O)(O)O)[C@@H](O)[C@H]1O [ATP, adenosine triphosphate] | – | – | inhibition of StCsm6 RNase (StCsm6; 1 mM ATP): inhibited; Kd ([1]; in the presence or absence of target RNA): 10 to 20 nM |
| Nc1ccn([C@@H]2O[C@H](COP(=O)(O)OP(=O)(O)OP(=O)(O)O)[C@@H](O)[C@H]2O)c(=O)n1 [CTP] | no reaction products are formed | no significant affinity | – |
| Nc1nc2c(ncn2[C@@H]2O[C@H](COP(=O)(O)OP(=O)(O)OP(=O)(O)O)[C@@H](O)[C@H]2O)c(=O)[nH]1 [GTP] | no reaction products are formed | no significant affinity | – |
| O=c1ccn([C@@H]2O[C@H](COP(=O)(O)OP(=O)(O)OP(=O)(O)O)[C@@H](O)[C@H]2O)c(=O)[nH]1 [UTP] | no reaction products are formed | no significant affinity | – |
| Nc1ncnc2c1ncn2[C@@H]1O[C@@H]2COP(=O)(O)O[C@H]3[C@@H](O)[C@H](n4cnc5c(N)ncnc54)O[C@@H]3COP(=O)(O)O[C@H]2[C@H]1O [c(AMP)2, c-di-AMP] | – | – | stimulation of StCsm6 ribonuclease activity (StCsm6; ssRNA NS, 37° C. 30 min, 50 nM individual cyclic oligoadenylate): only c(AMP)6 stimulated; stimulation of StCsm6′ ribonuclease activity (StCsm6′): only c(AMP)6 stimulated |

Reference: patent publication US12123031B2, “Regulation of CRISPR-associated rossman fold (CARF) domain containing proteins by oligoadenylates” (VILNIUS UNIVERSITY, priority 2017, dated 2024)
